Patent publication US20020115853A1, “Benzimidazolones and analogues” (priority 1999, published 2002)
Several values for one entry are separate records, joined by “and”; a condition that tells them apart may be missing. Identical values can stand only once.

Tested on: T47D cells
Experiment: T47D cell proliferation assay (BrdU incorporation)
Format: cell-based
Details: Homo sapiens, agonist mode, reference progestins, read-out: Estimated EC50, BrdU incorporation, individual studies
Description: 1. T47D cell Proliferation Assay
The objective of this assay is the determination of progestational and antiprogestational potency by using a cell proliferation assay in T47D cells. A compound's effect on DNA synthesis in T47D cells is measured.
DMEM:F12 (1:1) (GIBCO, BRL) supplemented with 10% (v/v) fetal bovine serum (not heat-inactivated), 100 U/ml penicillin, […], and 2 mM GlutaMax (GIBCO, BRL). b. Treatment medium: Minimum Essential
Medium (MEM) (#51200-038GIBCO, BRL) phenol red-free supplemented with 0.5% charcoal stripped fetal bovine serum, 100 U/ml penicillin, […] streptomycin, and 2 mM GlutaMax (GIBCO, BRL).
Stock T47 D cells are maintained in growth medium. For BrdU incorporation assay, cells are plated in 96-well plates (Falcon, Becton Dickinson Labware) at 10,000 cells/well in growth medium. […]
At the end of BrdU labeling, the medium is removed and BrdU incorporation is measured using a cell proliferation ELISA kit (#RPN 250, Amersham Life Science) according to manufacturer's instructions. […] Then 25 μl of 1 M sulfuric acid is added to each well to stop color reaction and optical density is read in a plate reader at 450 nm within 5 min.
Square root-transformed data are used for analysis of variance and nonlinear dose response curve fitting for both agonist and antagonist modes. […] EC50 or IC50 values are calculated from the retransformed values. […]

EC50 | Compound
0.019 nM | CC(=O)O[C@]1(C(C)=O)CC[C@H]2[C@@H]3C[C@H](C)C4=CC(=O)CC[C@]4(C)[C@H]3CC[C@@]21C [MPA, medroxyprogesterone acetate]

Tested on: rat uterine decidualization
Experiment: Rat decidualization assay
Format: in vivo
Details: ovariectomized rats, p.o., with progesterone 5.6 mg/kg
Description: 2. Rat Decidualization Assay
b. Animals (RACUC protocol #5002)
The animals are treated once daily for seven days.
Uteri are removed and trimmed of fat.
S f. Analysis of Results:
Body weight: Mean total animal body weight (default-kg)
Decidual response: [(D-C)/C]×100%

Estimated IC50, decrease in EC50 progesterone induced decidual response | Compound
0.21 mg/kg and 0.14 mg/kg | CC#C[C@]1(O)CC[C@H]2[C@@H]3CCC4=CC(=O)CCC4=C3[C@@H](c3ccc(N(C)C)cc3)C[C@@]21C [RU486]

Tested on: not given
Experiment: not given
Details: not given

melting point | Compound
168 to 169 °C | O=c1[nH]c2ccc(-c3cccc(Cl)c3)cc2n1Cc1ccccc1 [Compound 1, 1-Benzyl-6-(3-chloro-phenyl)-1,3-dihydro-benzoimidazol-2-one]
202 to 203 °C | O=c1[nH]c2ccc(-c3cccc([N+](=O)[O-])c3)cc2n1Cc1ccccc1 [Compound 2, 1-Benzyl-6-(3-nitro-phenyl)-1,3-dihydro-benzoimidazol-2-one]
219 to 220 °C | Cn1c(=O)[nH]c2ccc(-c3cccc(Cl)c3)cc21 [Compound 3, 6-(3-chloro-phenyl)-1-methyl-1,3-dihydro-benzoimidazol-2-one]
264 to 265 °C | Cn1c(=O)[nH]c2ccc(-c3cccc([N+](=O)[O-])c3)cc21 [Compound 4, 1-Methyl-6-(3-nitro-phenyl)-1,3-dihydro-benzoimidazol-2-one]
290 to 292 °C | O=C1CSc2cc(-c3cccc([N+](=O)[O-])c3)ccc2N1 [Compound B1, 7-(3-Nitro-phenyl)-4H-benzo[1,4]thiazin-3-one]
180 °C | CCC1Sc2cc(-c3cccc([N+](=O)[O-])c3)ccc2NC1=O (stereo not drawn) [Compound B2, 2-Ethyl-7-(3-nitro-phenyl)-4H-benzo[1,4]thiazin-3-one]
146 to 150 °C | CC(C)N1CC(=O)Nc2ccc(-c3cccc(Cl)c3)cc21 [Compound C4, 6-(3-Chloro-phenyl)-4-isopropyl-3,4-dihydro-1H-quinoxalin-2-one]
208 to 213 °C | CC(C)N1CC(=O)Nc2ccc(-c3ccc(F)c(Cl)c3)cc21 [Compound C5, 6-(3-Chloro-4-fluoro-phenyl)-4-isopropyl-3,4-dihydro-1H-quinoxalin-2-one]
324 to 325 °C | O=c1[nH]c2ccc(-c3cccc([N+](=O)[O-])c3)cc2[nH]1 [Example 9, 5-(3-Nitro-phenyl)-1,3-dihydro-benzoimidazol-2-one]
280 to 281 °C | O=c1[nH]c2ccc(-c3cccc([N+](=O)[O-])c3)cc2o1 [Example 11, 6-(3-Nitro-phenyl)-3H-benzooxazol-2-one]
276 to 277 °C | O=c1[nH]c2ccc(-c3cccc([N+](=O)[O-])c3)cc2s1 [Example 12, 6-(3-Nitro-phenyl)-3H-benzothiazol-2-one]
195 to 196 °C | O=c1[nH]c2ccc(-c3cccc(Cl)c3)cc2s1 [Example 13, 6-(3-Chloro-phenyl)-3H-benzothiazol-2-one]
238 to 240 °C | CC(C)N1CC(=O)Nc2ccc(-c3cc(F)cc(C#N)c3)cc21 [Example 20, 6-(3-Cyano-5-fluorophenyl)-4-isopropyl-3,4-dihydro-1H-quinoxalin-2-one]
211 to 212 °C | S=c1[nH]c2ccc(-c3cccc(Cl)c3)cc2n1Cc1ccccc1 [Example 24, 1-Benzyl-6-(3-chlorophenyl)-1,3-dihydro-2H-benzimidazole-2-thione]
244 to 245 °C | O=[N+]([O-])c1cccc(-c2ccc3[nH]c(=S)n(Cc4ccccc4)c3c2)c1 [Example 25, 1-Benzyl-6-(3-nitrophenyl)-1,3-dihydro-2H-benzimidazole-2-thione]
237 to 243 °C | CN1CC(=O)Nc2ccc(-c3cccc([N+](=O)[O-])c3)cc21 [Example 26, 6-(3-Nitro-phenyl)-4-methyl-3,4-dihydro-1H-quinoxalin-2-one]
228 to 230 °C | CC1Nc2cc(-c3ccc(Cl)cc3)ccc2NC1=O (stereo not drawn) [Example 27, 6-(4-Chloro-phenyl)-3-methyl-3,4-dihydro-1H-quinoxalin-2-one]
182 to 185 °C | O=C1CN(Cc2ccccc2)c2cc(-c3cccc(Cl)c3)ccc2N1 [Example 28, 4-Benzyl-6-(3-chlorophenyl)-3,4-dihydroquinoxalin-2 (1H)-one]
208 to 212 °C | CC(C)OC(=O)N1CC(=S)Nc2ccc(-c3cccc(Cl)c3)cc21 [Example 30, Isopropyl 7-(3-chlorophenyl)-3-thioxo-3,4-dihydroquinoxaline-1(2H)-carboxylate]
